# Tests used:
# PCSK9 = tested on: PCSK9; set-up: method as in 3 sources, ref 49 = [49]; PMID 35011066; doi:10.3390/nu14010193; 49. Macchi C. Greco M.F. Ferri N. Magni P. Arnoldi A. Corsini A. Sirtori C.R. Ruscica M. Lammi C. Impact of Soy β-Conglycinin Peptides on PCSK9 Protein Expression in HepG2 Cells Nutrients 2021 14 193 ||| ref 22 = [22]; doi:10.1016/j.jff.2017.02.009; 22. Zanoni C. Aiello G. Arnoldi A. Lammi C. Investigations on the hypocholesterolaemic activity of […] and LTFPGSAED, two peptides from lupin β-conglutin: Focus on LDLR and PCSK9 pathways J. Fu ||| ref 24 = [24]; PMID 33808034; doi:10.3390/nu13030863; 24. Lammi C. Aiello G. Bollati C. Li J. Bartolomei M. Ranaldi G. Ferruzza S. Fassi E.M.A. Grazioso G. Sambuy Y. Trans-Epithelial Transport, Metabolism, and Biological Activity Assessment of the Multi-; conditions: through downregulation of HNF-1α; cited from earlier work
# [1] = tested on: LDLR on HepG2 cell surface; assay: In-cell western (ICW), LDLR on HepG2 surface in the presence of PCSK9; type: cell-based, human; conditions: 50 µM + PCSK9 4 µg/mL; Figure 3B
# Procedure: For the experiments, a total of 3 × 10^4 HepG2 cells/well were seeded in 96-well plates and treated with 4.0 μg/mL PCSK9-WT and 4.0 μg/mL PCSK9 + peptides P5 and/or P5 analogs (50 µM) and vehicle (H2O) for 2 h at 37 °C under 5% CO2 atmosphere. Thus, cells underwent to ICW assay following conditions already optimized. See Supplementary Materials for detailed information. […]
# cLex Co., Nagano, Japan). The peptides (P5, P5-Best, P-H6A, and P5-S7A) were synthe-sized by the company GeneScript (Piscataway, NJ, USA) at >95% purity. The antibody against HMG-CoAR was bought from Abcam (Cambridge, UK). […]
# HMG-CoAR Aactivity Assay. […] Subsequently, the samples were mixed and the absorbance at 340 nm read by the microplate reader Synergy H1 (Winooski, VT, USA) at time 0 and 10 min. The HMG-CoAR-dependent oxidation of NADPH and the inhibition properties of peptides were measured by absorbance reduction, which is directly proportional to enzyme activ- […]
# In Vitro PCSK9-LDLR Binding Assay. […] The reaction was stopped with 2.0 M sulfuric acid and the absorbance at 450nm was measured using the Synergy H1 fluorescent plate reader […]
sequence,measurement,setting,value
"LILPKHSDAD [Peptide P5, natural peptide derived from a peptic lupin protein hydrolysate]","PCSK9 protein levels and secretion (P5, earlier work, words)",PCSK9,reduces the PCSK9 protein levels and its secretion
same,LDLR level on cell surface in presence of PCSK9,[1],restored

# — paper PMC8951016, “Computational Design and Biological Evaluation of Analogs of Lupin Peptide P5 Endowed with Dual PCSK9/HMG-CoAR Inhibiting Activity” (Pharmaceutics, 2022)
